Test results: publication PMC4164784, “4E-BPs require non-canonical 4E-binding motifs and a lateral surface of eIF4E to repress translation” (Nature Communications, 2014)
No end group written: not given here.

How the values were obtained:
eIF4E (full length, WT) = assay: GST/MBP pull-down of full-length WT eIF4E, coexpressed in E. coli; assay type: binding, Drosophila melanogaster; conditions: recombinant CUP (311–440), Thor (full length), 4E-T (1–58) or eIF4G (578–650), WT or mutant, SDS–PAGE
Description: For the pull-down assays shown in Fig. 3 and Supplementary Fig. 6a, the full-length His6- or SHN-tagged eIF4E (WT or II-AA mutant) was coexpressed with GST or MBP-tagged protein fragments, including CUP (residues 311–440), Thor (full length), 4E-T (residues 1–58) or eIF4G (residues 578–650) in E. coli BL21 (DE3) STAR cells in autoinducing medium[44] overnight at 20 °C. The cells were resuspended in lysis buffer (20 mM Tris–HCl (pH 7.5), 100 mM NaCl, 1 mM DTT) supplemented with EDTA-free protease inhibitor (Roche) and lysed by sonication. The cleared lysates were incubated for 1 h with 20 μl of Protino Glutathione Agarose 4B beads (Macherey-Nagel) or amylose resin (New England Biolabs). The beads were washed three times with lysis buffer, and the bound proteins were eluted with lysis buffer containing 25 mM L-glutathione or 25 mM maltose for 15 min. The proteins were analyzed by 10–15% SDS–PAGE followed by Coomassie blue staining.

[1] = tested on: eIF4E II-AA mutant (full length); assay: GST/MBP pull-down of full-length eIF4E II-AA mutant, coexpressed in E. coli; assay type: binding, Drosophila melanogaster; conditions: recombinant CUP (311–440), Thor (full length), 4E-T (1–58) or eIF4G (578–650), WT or mutant, SDS–PAGE
[2] = target: T1, eIF4E–eIF4G complex (eIF4E WT; eIF4G residues 578–650) (Drosophila melanogaster, UniProt P48598); assay: Kinetic dissociation of eIF4E–eIF4G complexes by competitor; assay type: biochemical; conditions: 1 μM complex on Strep-Tactin beads; fivefold molar excess of C+NC peptide (5 μM); CUP n=3, 4E-T n=2 averages
T1 construct: full-length eIF4E (WT or the II-AA mutant) containing an N-terminal SNH-tag was coexpressed; made in house; host or cells: E. coli BL21 Star (DE3), coexpression
T1 sequence (P48598 1-248 isoform P48598-2): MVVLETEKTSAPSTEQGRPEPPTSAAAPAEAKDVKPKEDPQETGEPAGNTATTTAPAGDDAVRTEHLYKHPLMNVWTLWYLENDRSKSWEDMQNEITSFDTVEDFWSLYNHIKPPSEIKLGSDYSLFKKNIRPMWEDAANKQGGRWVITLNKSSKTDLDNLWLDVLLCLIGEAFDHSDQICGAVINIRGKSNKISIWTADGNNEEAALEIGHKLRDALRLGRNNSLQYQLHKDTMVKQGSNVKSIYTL
Description: To obtain the preassembled eIF4E–eIF4G complexes used in Figs 4 and 5d–g, full-length eIF4E (WT or the II-AA mutant) containing an N-terminal SNH-tag was coexpressed with an N-terminal GST-tagged eIF4G (residues 578–650). The cells were lysed by sonication in lysis buffer containing 50 mM HEPES (pH 7.2), 300 mM NaCl and 2 mM DTT. The complexes were purified from the cleared lysates using Protino Glutathione Agarose 4B beads (Machery-Nagel). The complex was further purified using a heparin column (HiTrap Heparin HP 5 ml, GE Healthcare) and a final size exclusion chromatography (Superdex 200 16/60, GE Healtcare) in 20 mM HEPES (pH 7.2), 200 mM NaCl and 2 mM DTT.
In the ‘kinetic assays’ shown in Fig. 5d–g, the purified complexes containing SHN-eIF4E and GST-eIF4G (578–650; 1 μM) were incubated with Strep-Tactin beads for 20 min. […] The eIF4E-associated proteins were pulled down, eluted and analyzed as described above. […]
The amounts of GST-eIF4G bound to eIF4E in each experimental condition were determined using the Image J software after Coomassie blue staining. […]
Each experiment was repeated at least twice. (e,f) Quantification of the experiments shown in Fig. 5d–g. […]
micrographs of fixed S2 cells expressing HA-4E-T and GFP-Tral. The localization of HA-4E-T was determined by indirect immunofluorescence using an anti-HA antibody. […]

Substance	binding to WT eIF4E (in words) (eIF4E (full length, WT))	binding to eIF4E II-AA mutant (in words) [1]	time to 50% eIF4G dissociation [2]
4E-T C: 4E-T residues 9–21, canonical motif	reduced binding	reduced binding	
CUP C+NC: CUP residues 325–376, eIF4E-binding region short, C-terminal GB1 (KSYTRSRLMDIRNGMFNALMHRSKESFVMPRIATCDDIELEGRLRRMNIWRT-GB1; UniProt Q9VMA3 325-376, looked up, fragment)			2.5 ± 0.5 min
Thor C: Thor residues 50–63, canonical motif		strongly impaired in their binding	
